Laboratory results reported in PMC11279616 (Pharmaceuticals, 2024).
Where no end group is shown, it is not given here.

How the values were obtained:
Vero E6 cells [1] = conditions: 100 µg
Vero E6 cells [2] = type: cell-based, African green monkey; conditions: at 50 and at 100 μg, MTS
Method: For the MTS assay, VERO E6 cells (2 × 10^4/well) were seeded into 96-well plates in triplicate and cultured in growth medium. Then, different peptide concentrations were added, and the viability was tested every day for three consecutive days using the CellTiter […] Aqueous One Solution Cell Proliferation Assay kit (CTB169; Promega, Fitchburg, WI, USA) following the manufacturers manual. Untreated cells were used for value normalizations.

Row | Sequence | toxic effect (Vero E6 cells [1]) | concentration/toxicity ratio (Vero E6 cells [2])
1 | VVNTDSLSSVTNATSIQITAPASMLI [DPP4_270–295] | without observing any toxic effect | –
2 | VTNATAPNTDVSVSLSMILQTISASI [pep6] | – | best concentration/toxicity ratio
